Here are results for five compounds from publication doi:10.1101/2025.08.22.671821v1, “Cross-regulation of (p)ppGpp and c-di-GMP pathways controls a cell-cycle transition” (biorxiv, 2025).

Bounds are passed on as bounds.

Broadly, the Kd is the free concentration of one partner at which half of the binding sites on the other are occupied at equilibrium, for simple one-to-one binding. A high value points to weaker binding. Usually inhibition stands for the drop in the measured response relative to a control, in per cent. Lower therefore signals a response near the control.

The target of test [1] is T1, PleD (PleDCC) (Caulobacter vibrioides, UniProt B8GZM2).
T1 construct: full-length D1-D2-DGC, His-tagged, pET11b-pleD, E. coli BL21(DE3), Ni-NTA and SEC; unphosphorylated
T1 sequence (B8GZM2 1-454): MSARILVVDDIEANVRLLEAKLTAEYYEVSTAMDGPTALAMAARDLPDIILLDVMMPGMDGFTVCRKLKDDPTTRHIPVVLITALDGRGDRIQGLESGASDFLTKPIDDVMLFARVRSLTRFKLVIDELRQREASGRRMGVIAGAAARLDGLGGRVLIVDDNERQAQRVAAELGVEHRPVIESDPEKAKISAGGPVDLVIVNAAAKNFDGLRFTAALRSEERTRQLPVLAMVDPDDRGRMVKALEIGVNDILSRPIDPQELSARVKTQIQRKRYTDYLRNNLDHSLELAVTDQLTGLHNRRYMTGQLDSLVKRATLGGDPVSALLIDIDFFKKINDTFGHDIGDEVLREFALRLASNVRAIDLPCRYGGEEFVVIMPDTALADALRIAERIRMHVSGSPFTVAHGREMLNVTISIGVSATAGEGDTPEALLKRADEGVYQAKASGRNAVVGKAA
As to the kind of experiment: crystal structure ([…] and […] Å). In kind it is binding. The following applies: I-site (inhibitory site), two molecules per monomer; with ppGpp (9G85) or pppGpp (9G86).

For test [2], the target named is T1, PleD (PleDCC). In words: ITC. In kind it is binding.
Test [3] addresses T2, PleDAT (Agrobacterium fabrum, UniProt A9CJ98).
T2 construct: gene pleD; His-tagged, pET28a-pleDAT, E. coli BL21(DE3), Ni-NTA and SEC
In words: c-di-GMP synthesis, C18-HPLC. In kind it is biochemical. The following applies: 100 µM GTP, 40 µM protein, 10 mM MgCl2, pH 7.8, 25 °C, 2 h.

The target of test [4] is T3, PleDSM (Sinorhizobium meliloti, UniProt Q92QM5).
T3 construct: gene pleD; His-tagged, pET28a-pleDSM, E. coli BL21(DE3), Ni-NTA and SEC
T3 sequence (Q92QM5 1-455): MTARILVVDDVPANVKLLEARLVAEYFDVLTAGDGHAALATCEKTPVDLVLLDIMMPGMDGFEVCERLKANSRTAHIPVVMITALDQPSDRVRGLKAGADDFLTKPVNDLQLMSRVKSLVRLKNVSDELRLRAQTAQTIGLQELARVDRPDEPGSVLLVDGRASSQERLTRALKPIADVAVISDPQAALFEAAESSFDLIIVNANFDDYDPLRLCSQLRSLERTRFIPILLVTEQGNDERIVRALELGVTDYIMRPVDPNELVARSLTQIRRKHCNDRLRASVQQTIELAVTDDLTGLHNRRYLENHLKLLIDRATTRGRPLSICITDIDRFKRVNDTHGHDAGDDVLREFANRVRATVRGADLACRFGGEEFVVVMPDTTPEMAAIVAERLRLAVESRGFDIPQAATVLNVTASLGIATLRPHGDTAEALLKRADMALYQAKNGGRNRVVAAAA
As to the kind of experiment: c-di-GMP synthesis, C18-HPLC. It counts as biochemical. Conditions: 100 µM GTP, 40 µM protein, 10 mM MgCl2, pH 7.8, 25 °C, 2 h.

The target of test [5] is T1, PleD (PleDCC). As to the kind of experiment: c-di-GMP synthesis, C18-HPLC. It counts as biochemical.
Test [6] concerns the target T2, PleDAT. As to the kind of experiment: nanoDSF. In kind it is binding. The following applies: 100 µM protein, 1 mM ligand, pH 7.8, 5 mM MgCl2.
Test [7] deals with T4, WspR (Pseudomonas aeruginosa, UniProt Q9HXT9).
T4 construct: His-tagged, pET28a-wspR, E. coli BL21(DE3), Ni-NTA and SEC
T4 sequence (Q9HXT9 entry or part of it): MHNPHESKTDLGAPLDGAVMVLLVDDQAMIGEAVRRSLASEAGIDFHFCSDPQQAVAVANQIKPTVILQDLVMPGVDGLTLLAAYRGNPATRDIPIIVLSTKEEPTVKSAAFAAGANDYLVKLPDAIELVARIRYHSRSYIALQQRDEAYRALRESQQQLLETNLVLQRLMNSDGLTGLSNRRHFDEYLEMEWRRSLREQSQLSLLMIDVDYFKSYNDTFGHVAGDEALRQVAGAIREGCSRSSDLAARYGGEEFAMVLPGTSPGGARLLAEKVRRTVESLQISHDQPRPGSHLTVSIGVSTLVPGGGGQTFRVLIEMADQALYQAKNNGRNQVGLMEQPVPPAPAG
As to the kind of experiment: c-di-GMP synthesis, C18-HPLC. In kind it is biochemical.

The target of test [8] is T4, WspR. In words: c-di-GMP synthesis, C18-HPLC. It counts as biochemical. The following applies: 100 µM GTP, 40 µM protein, 10 mM MgCl2, pH 7.8, 25 °C.
The target of test [9] is T3, PleDSM. In words: c-di-GMP synthesis, C18-HPLC. In kind it is biochemical. The following applies: 100 µM GTP, 40 µM protein, 10 mM MgCl2, pH 7.8, 25 °C.

T2 sequence (A9CJ98 entry or part of it): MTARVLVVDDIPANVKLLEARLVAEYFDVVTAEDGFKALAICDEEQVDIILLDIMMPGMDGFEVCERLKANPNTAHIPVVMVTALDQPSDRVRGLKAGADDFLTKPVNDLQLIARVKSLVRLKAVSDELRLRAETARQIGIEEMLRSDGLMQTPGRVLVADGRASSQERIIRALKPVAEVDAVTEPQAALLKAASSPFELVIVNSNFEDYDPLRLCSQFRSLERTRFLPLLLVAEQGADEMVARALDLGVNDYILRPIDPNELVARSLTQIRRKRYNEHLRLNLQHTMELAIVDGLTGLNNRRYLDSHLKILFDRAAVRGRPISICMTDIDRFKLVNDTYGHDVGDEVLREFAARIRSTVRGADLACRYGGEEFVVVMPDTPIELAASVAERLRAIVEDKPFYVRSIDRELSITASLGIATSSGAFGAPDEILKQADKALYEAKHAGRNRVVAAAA

In the case of `Nc1nc2c(ncn2[C@@H]2O[C@@H]3COP(=O)(O)O[C@H]4[C@@H](O)[C@H](n5cnc6c(=O)[nH]c(N)nc65)O[C@@H]4COP(=O)(O)O[C@H]3[C@H]2O)c(=O)[nH]1` [c-di-GMP], the “crystal structure (2.9 and 3 Å)” value at PleD (PleDCC) [1] is reported as “each monomer of the (p)ppGpp-PleD structures is bound by two cyclic di-GMP molecules”.
On to `Nc1nc2c(ncn2[C@@H]2O[C@H](COP(=O)(O)OP(=O)(O)OP(=O)(O)O)[C@@H](OP(=O)(O)OP(=O)(O)O)[C@H]2O)c(=O)[nH]1` [pppGpp], for which the affinity at PleD (PleDCC) [2], expressed as Kd, was 9.31 ± 1.16 µM. In addition, the “% inhibition at 500 μM” value on PleDAT [3] is “ppGpp and pppGpp strongly inhibited c-di-GMP production, with pppGpp showing greater potency”; at PleDSM [4] it was “ppGpp and pppGpp strongly inhibited c-di-GMP production, with pppGpp showing greater potency”. Besides, the inhibition at 500 µM was over 90% against PleD (PleDCC) [5] and over 50% against WspR [7]. Moreover, at PleDAT [6], the ΔTm entry was “NanoDSF assays further confirmed PleDAT binding to (p)ppGpp”.
As to `Nc1nc2c(ncn2[C@@H]2O[C@H](COP(=O)(O)OP(=O)(O)OP(=O)(O)O)[C@@H](O)[C@H]2O)c(=O)[nH]1` [GTP], the “c-di-GMP synthesis, C18-HPLC” value on WspR [8] and at PleDSM [9] was “c-di-GMP production by different diguanylate cyclases (DGCs)” throughout.
`Nc1nc2c(ncn2[C@@H]2O[C@H](COP(=O)(O)CP(=O)(O)OP(=O)(O)O)[C@@H](O)[C@H]2O)c(=O)[nH]1` [GpCpp] returned a dissociation constant (Kd) on PleD (PleDCC) [2] of 6.01 ± 1.52 µM.
`Nc1nc2c(ncn2[C@@H]2O[C@H](COP(=O)(O)OP(=O)(O)O)[C@@H](OP(=O)(O)OP(=O)(O)O)[C@H]2O)c(=O)[nH]1` [ppGpp]: the dissociation constant (Kd) at PleD (PleDCC) [2] came to 45.4 ± 22.3 µM. Besides, the “% inhibition at 500 μM” value is “ppGpp and pppGpp strongly inhibited c-di-GMP production” on PleDAT [3]; “ppGpp and pppGpp strongly inhibited c-di-GMP production” at PleDSM [4]. For the same compound, the inhibition at 500 µM against PleD (PleDCC) [5] is over 50%. Moreover, the ΔTm result on PleDAT [6] is recorded as “NanoDSF assays further confirmed PleDAT binding to (p)ppGpp”.
